Values of other authors, collected in US20040241049A1, “Elastomeric tools for the fabrication of elastomeric devices and uses thereof” (priority 2003, published 2004).

System: α1-acid glycoprotein, αAGP
Conditions: displacement of quinaldine red from αAGP; stated as known

Structure (SMILES)	inhibition of QR/αAGP binding (binder / non-binder)
CN(C)CCCN1c2ccccc2Sc2ccc(Cl)cc21 [chloropromazine]	known inhibitors to QR/αAGP binding
CC(C)Cc1ccc(C(C)C(=O)O)cc1 (stereo not drawn) [ibuprofen]	non-binder
O=C(O)c1cc(I)cc(I)c1I [tri-idiobenzoic acid]	known inhibitors to QR/αAGP binding
